Paper PMC9318729 (Toxins, 2022)
Read-outs that look alike come from different tables or passages of the source. No end group written: not given here.

What was measured:
[1] = tested on: A549 cells; test: Effect of pathway inhibitors on Smp24-induced cytotoxicity (MTT and LDH release); type: cell-based, human; settings: inhibitor pre-incubated 30 min (40 μM Necrostatin-1, 1 μM Cyclosporine A), then 5 μM Smp24 for 12 h
Description: MTT assay was performed to analyze cellular viability as previously reported by us. […] […] After incubation, 10 µL MTT (5 mg/mL) was added before incubation for 4 h at 37 °C in the dark. Subsequently, the cell medium was discarded, and 200 µL DMSO was applied into each well before the absorbance value at 490 nm was determined via the microplate reader (Tecan Company, Männedorf, Switzerland). Cell proliferation was further detected by the BeyoClick™ EdU cell proliferation kit with Alexa Fluor 488 (Beyotime Institute of Biotechnology, Shanghai, China) according to the protocol of manufacturer. In brief, A549 cells (2 × 10^5 cells/well) were grown in 6-well plates and exposed to different concentrations of Smp24 (0, 1.25, 2.5 and 5 μM) for 24 h. Then, the cells were incubated with EdU for 2 h and stained with Alexa Fluor 488 for 30 min in the dark before cell fluorescence intensity was measured by flow cytometry (Becton Dickinson Company, Franklin Lakes, NJ, USA). The experiments had been performed in triplicate.
The LDH release assay was carried out with a commercial kit (Beyotime Institute of Biotechnology, Shanghai, China) following the manufacturer’s manual. […] Thereafter, a microplate reader (Tecan Company, Männedorf, Switzerland) was used to measure the absorbance value at 490 nm. […]

[2] = tested on: A549 cells; test: MTT cell viability assay; type: cell-based, human; settings: 24 h treatment
Description: (§1) MTT assay was performed to analyze cellular viability as previously reported by us. Briefly, A549, H3122, PC-9, H460 and MRC-5 cells (1 × 10^4 cells/well) were grown in 96-well plates and exposed to the different concentrations of Smp24 (1.25–20 μM) with 24 h. […] After incubation, 10 µL MTT (5 mg/mL) was added before incubation for 4 h at 37 °C in the dark. Subsequently, the cell medium was discarded, and 200 µL DMSO was applied into each well before the absorbance value at 490 nm was determined via the microplate reader (Tecan Company, Männedorf, Switzerland). Cell proliferation was further detected by the BeyoClick™ EdU cell proliferation kit with Alexa Fluor 488 (Beyotime Institute of Biotechnology, Shanghai, China) according to the protocol of manufacturer. In brief, A549 cells (2 × 10^5 cells/well) were grown in 6-well plates and exposed to different concentrations of Smp24 (0, 1.25, 2.5 and 5 μM) for 24 h. Then, the cells were incubated with EdU for 2 h and stained with Alexa Fluor 488 for 30 min in the dark before cell fluorescence intensity was measured by flow cytometry (Becton Dickinson Company, Franklin Lakes, NJ, USA). The experiments had been performed in triplicate.

[3] = tested on: H3122 cells; test: MTT cell viability assay; type: cell-based, human; settings: 24 h treatment
Description: as §1

[4] = tested on: H460 cells; test: MTT cell viability assay; type: cell-based, human; settings: 24 h treatment
Description: as §1

[5] = tested on: PC-9 cells; test: MTT cell viability assay; type: cell-based, human; settings: 24 h treatment
Description: as §1

[6] = Acute toxicity analysis; type: in vivo, mice; settings: 5 and 10 mg/kg intraperitoneal, 3 animals per group
Description: To detect the acute toxicity of Smp24 in vivo, the mice were weighed and randomly divided into three groups with 3 animals each, and Smp24 (5 mg/kg and 10 mg/kg) and saline were intraperitoneally administered into mice of different groups. At 48 h after injection, serum and organ tissues from mice were collected for blood biochemical detection and organ weight measurement, respectively.

[7] = tested on: MRC-5 cells; test: MTT cell viability assay, normal cells; type: cell-based; settings: 24 h treatment, mean ± SEM (n = 3), read-out: IC50 against MRC-5 normal cells
Description: as §1

[8] = tested on: A549 xenograft; test: A549 xenograft mice model, in vivo antitumor experiment; design: species or system BALB/c nude mice; settings: 2 mg/kg every three days for 18 days, n = 5
Description: A total of 10 BALB/c nude mice of both sexes (18–20 g, 6 weeks) were acquired from the Laboratory Animal Center of Southern Medical University and were raised in a specific pathogen-free mini-barrier system of the central animal facility of Southern Medical University under controlled conditions (60% humidity, 21 ± 2 °C room temperature, and 12 h light-dark cycle). The experimental protocols (ethical approval number: L2019226 on 11 November 2019) involving animals were approved by the Animal Ethics Committee of Southern Medical University and were implemented in the light of the international regulations for animal research. The animals were placed in an induction chamber, and anesthesia was induced with 5% isoflurane before sacrificed by cervical dislocation.
First, 5 × 10^6 A549 cells with viability over 90% were inoculated subcutaneously into the right flank per mouse. Tumor growth was examined daily by palpation and the diameter was measured with calipers in two planes. Tumor volumes were counted with the following formula: volume (mm^3) = (smallest diameter)^2 × (largest diameter)/2. Then, the mice were randomized into two groups (n = 5 mice/group) for physiological saline and Smp24 treatment. […] The body weight of mice and tumor volumes were recorded daily. […]

[9] = tested on: NSCLC tumor; settings: subcutaneous injection, cited from earlier work
Description: For most peptides, despite the cogent evidence about their antitumor effects in vitro, their clinical applications have met with major obstacles owing to several issues, including their non-specific cellular cytotoxicity and rapid degradation in the blood. In order to further verify the antitumor effects of Smp24 in vivo, a tumor-burdened experiment was carried out. […] Furthermore, it ...

Question: Which “Inhibition of Smp24-induced cytotoxicity and necrosis of A549” value [1] does the source give for `CN1C(=O)C(Cc2c[nH]c3ccccc23)NC1=S` (stereo not shown) [Necrostatin-1] here?
Answer: Its value is “can inhibit”.

Question: What does the source list for IWSFLIKAATKLLPSLFGGGKKDS [Smp24]?
Answer: Selectivity index, A549 ([2]; normal cells MRC-5): 3.61; IC50 ([2]; MTT, mean ± SEM (n = 3), read-out: IC50 against A549 cells): ~4.06 µM; Selectivity index, H3122 ([3]; normal cells MRC-5): 3.16; IC50 ([3]; MTT, mean ± SEM (n = 3), read-out: IC50 against H3122 cells): ~4.64 µM; Selectivity index, H460 ([4]; normal cells MRC-5): 2.07; IC50 ([4]; MTT, mean ± SEM (n = 3), read-out: IC50 against H460 cells): ~7.07 µM; Selectivity index, PC-9 ([5]; normal cells MRC-5): 2.32; IC50 ([5]; MTT, mean ± SEM (n = 3), read-out: IC50 against PC-9 cells): ~6.34 µM; Animal death after the first day's injection [6]: no animal death; Heart, lung, liver, spleen and kidney weights ([6]; 48 h after injection): did not change significantly; Plasma AST, ALT, BUN and Cre ([6]; 48 h after injection): did not change significantly; IC50 [7]: ~14.7 µM; Weight changes of body and organs (heart, lung, liver, spleen, kidney) [8]: did not affect

Question: Which results are given for melittin?
Answer: Suppression of NSCLC tumor growth ([9]; 0.5 mg/kg): 27%; Suppression of NSCLC tumor growth ([9]; 10 mg/kg): 61%
